Assays:
A549 cells = experiment: Cell cycle distribution (PI staining, cytofluorometry); format: cell-based, human; settings: 10 μM CDDP alone or with PN and/or NAC
Method: To measure apoptosis-related parameters, living cells were labeled for 30 min at +37° C. with 40 nM 3,3′dihexyloxalocarbocyanine iodide (DiOC6(3), from Molecular Probes-Invitrogen, Eugene, USA), which quantifies the mitochondrial transmembrane potential (Δψm), plus 1 μg/mL propidium iodide (PI), which only accumulates in cells with ruptured plasma membrane {Galluzzi, 2009; Galluzzi, 2008; Galluzzi, 2007}. To assess cell cycle distribution, cells were collected, fixed by gentle vortexing in ice-cold 80% (v/v) ethanol (Carlo Erba Reagents, Milano, Italy) and stained with 50 μg/mL PI in 0.1% (w/v) D-glucose in PBS supplemented with 1 μg/mL (w/v) RNAse A {Mondragon, 2009; Mouhamad, 2007}. All cytofluorometric determinations were carried out a FACSCalibur or a FACScan cytofluorometer (BD Biosciences, San Jose, USA) equipped with a 70 μm nozzle.
First line statistical analysis of cytofluorometric results was performed by using the CellQuest™ software (BD Biosciences), by gating on the events characterized by normal forward scatter and side scatter parameters. Apoptosis- and cell cycle-related data were further analyzed with Microsoft Excel (Microsoft Co., Redmond, USA) and statistical significance was assessed by means of two-tailed Student's t test (p<0.05).

[1] = tested on: CDDP-resistant A549 clones (A549 #1-3), HCC827, H1299, H1650, H1975, HeLa, U2OS and WT HCT 116 cells; experiment: Cytofluorometric assessment of cell death, CDDP alone or combined with PN, panel of cell lines; format: cell-based, human; settings: sub-apoptotic dose of CDDP alone or combined with 2.5 mM PN
From the text: (A-C) Cytofluorometric assessment of cell death induced by the indicated sub-apoptotic dose of cisplatin (CDDP) alone or combined with PN in 3 distinct CDDP-resistant A549 clones (A549 #1-3, A), in 4 non-small cell lung cancer (NSCLC) cell lines other than A549 (HCC827, H1299, H1650 and H1975 cells, B), in cervical carcinoma HeLa cells, in osteosarcoma U2OS cells as well as in wild type (WT) or TP53^−/− colon carcinoma HCT 116 cells (C).
Unless otherwise specified, chemicals were purchased from Sigma-Aldrich (St. Louis, USA), culture media and supplements for cell culture from Gibco-Invitrogen (Carlsbad, USA) and plasticware from Corning (Corning, USA). Anti-human interleukin 6 (IL6, goat antiserum #AB-206-A) and IL6 receptor (IL6R, goat antiserum #AB-227-A) neutralizing antibodies were purchased by R&D Systems (Minneapolis, USA). Orlistat (Xenical®) was obtained from Roche (Basel, Switzerland). […]
To measure apoptosis-related parameters, living cells were labeled for 30 min at +37° C. with 40 nM 3,3′dihexyloxalocarbocyanine iodide (DiOC6(3), from Molecular Probes-Invitrogen, Eugene, USA), which quantifies the mitochondrial transmembrane potential (Δψm), plus 1 μg/mL propidium iodide (PI), which only accumulates in cells with ruptured plasma membrane {Galluzzi, 2009; Galluzzi, 2008; Galluzzi, 2007}. […]

[2] = tested on: murine Lewis lung carcinoma (LLC) cells in immunocompetent C57BL/6 mice; experiment: Tumor graft model: LLC cells in C57BL/6 mice; format: in vivo, mouse; settings: intraperitoneal CDDP with systemic injections of PN
Method: C57BL/6 (H-2b) and Swiss Nude mice were obtained from Janvier (Le Genest St. Isle, France) and Charles River, respectively. Animals were maintained in pathogen-free conditions, and all experiments were carried out (upon approval by the local ethical committee) according to the Federation of European Laboratory Animal Science Association (FELASA) guidelines. Mice were used between 6 and 12 weeks of age. During the experiments, animals were subjected to artificial light cycle (12 h lights on-12 h lights off) and allowed food and drink ad libitum.
5×10^5 LLC and A549 cells were subcutaneously xenografted (in 100 μL sterile PBS) in 25-30 immunocompetent (C57BL/6) and immunodeficient (Swiss Nude) mice, respectively. When the surface of tumors reached 25-40 mm^2, n=4-6 mice were assigned to either of 4 different treatment groups: group 1=100 μL intraperitoneal PBS; group 2=5 mg/kg intraperitoneal CDDP in 100 μL PBS; group 3=240 mg/Kg intraperitoneal Orlistat® in 40 μL PBS; group 4=5 mg/kg intraperitoneal CDDP in 100 μL PBS+intraperitoneal Orlistat® in 40 μL PBS. Treatments were administered three times a week (day 1, 3 and 5; day 8=day 1). Tumor size was monitored on the day of treatment by means of a standard calliper and tumor volume was extrapolated as previously described {Streit, 1999}. […] Statistical significance was evaluated by two-way ANOVA.

For Cc1ncc(CO)c(CO)c1O [PN, pyridoxine], the “cell cycle arrest induced by CDDP” value (A549 cells) was “not affected by the presence of PN”, the “chemosensitization to CDDP in other cancer cell lines” value [1] was “exerted chemosensitizing effects” and the “antitumor effects of CDDP-based chemotherapy (tumor growth)” value [2] was “augmented the antitumor effects of CDDP-based chemotherapy in vivo”.

Reference: patent US20130281313A1, “PROGNOSTIC AND/OR PREDICTIVE BIOMARKERS AND BIOLOGICAL APPLICATIONS THEREOF” (INSTITUT GUSTAVE ROUSSY, priority 2010, published 2013)
